Experimental data: ChEMBL document CHEMBL4627352, “New acrylamide-sulfisoxazole conjugates as dihydropteroate synthase inhibitors” (Bioorg Med Chem, 2020)
Converted amounts (≈) assume the structure as drawn. The source made the active and inactive calls. No cut-off for these calls is given here.

Experiments:
[1] = system: Escherichia coli ATCC 25922; assay: Inhibition of DHPS in Escherichia coli ATCC 25922 assessed as inhibition of bacterial growth incubated for 24 hrs in presence of folate precursor, pABA by microbroth dilution method
Geotrichum candidum [2] = assay: Inhibition of DHPS in Geotrichum candidum assessed as antifungal activity by measuring inhibition zone at 5 mg/mL incubated for 48 hrs by disk diffusion method
Aspergillus fumigatus [3] = assay: Inhibition of DHPS in Aspergillus fumigatus assessed as antifungal activity by measuring inhibition zone at 5 mg/mL incubated for 48 hrs by disk diffusion method
Proteus vulgaris [4] = assay: Inhibition of DHPS in Proteus vulgaris assessed as antibacterial activity by measuring inhibition zone at 5 mg/mL incubated for 24 hrs by disk diffusion method
Klebsiella pneumoniae [5] = assay: Inhibition of DHPS in Klebsiella pneumoniae assessed as antibacterial activity by measuring inhibition zone at 5 mg/mL incubated for 24 hrs by disk diffusion method
[6] = system: Staphylococcus epidermidis; assay: Inhibition of DHPS in Staphylococcus epidermidis assessed as antibacterial activity by measuring inhibition zone at 5 mg/mL incubated for 24 hrs by disk diffusion method
[7] = system: Syncephalastrum racemosum; assay: Inhibition of DHPS in Syncephalastrum racemosum assessed as antifungal activity by measuring inhibition zone at 5 mg/mL incubated for 48 hrs by disk diffusion method
Bacillus subtilis [8] = assay: Inhibition of DHPS in Bacillus subtilis assessed as antibacterial activity by measuring inhibition zone at 5 mg/mL incubated for 24 hrs by disk diffusion method
[9] = system: Escherichia coli ATCC 25922; assay: Inhibition of DHPS in Escherichia coli ATCC 25922 assessed as inhibition of bacterial growth incubated for 24 hrs in presence of folate dependent metabolite, methionine by microbroth dilution method
Escherichia coli [10] = assay: Inhibition of DHPS in Escherichia coli assessed as antibacterial activity by measuring inhibition zone at 5 mg/mL incubated for 24 hrs by disk diffusion method
Streptococcus pneumoniae [11] = assay: Inhibition of DHPS in Streptococcus pneumoniae assessed as antibacterial activity by measuring inhibition zone at 5 mg/mL incubated for 24 hrs by disk diffusion method
[12] = system: Staphylococcus epidermidis; assay: Inhibition of DHPS in Staphylococcus epidermidis assessed as antibacterial activity by measuring inhibition of bacterial growth incubated for 24 hrs by microbroth dilution method
Bacillus subtilis [13] = assay: Inhibition of DHPS in Bacillus subtilis assessed as antibacterial activity by measuring inhibition of bacterial growth incubated for 24 hrs by microbroth dilution method
Streptococcus pneumoniae [14] = assay: Inhibition of DHPS in Streptococcus pneumoniae assessed as antibacterial activity by measuring inhibition of bacterial growth incubated for 24 hrs by microbroth dilution method
Escherichia coli [15] = assay: Inhibition of DHPS in Escherichia coli assessed as antibacterial activity by measuring inhibition of bacterial growth incubated for 24 hrs by microbroth dilution method
[16] = system: Syncephalastrum racemosum; assay: Inhibition of DHPS in Syncephalastrum racemosum assessed as antifungal activity by measuring inhibition of fungal growth incubated for 48 hrs by microbroth dilution method
Geotrichum candidum [17] = assay: Inhibition of DHPS in Geotrichum candidum assessed as antifungal activity by measuring inhibition of fungal growth incubated for 48 hrs by microbroth dilution method
Klebsiella pneumoniae [18] = assay: Inhibition of DHPS in Klebsiella pneumoniae assessed as antibacterial activity by measuring inhibition of bacterial growth incubated for 24 hrs by microbroth dilution method
Aspergillus fumigatus [19] = assay: Inhibition of DHPS in Aspergillus fumigatus assessed as antifungal activity by measuring inhibition of fungal growth incubated for 48 hrs by microbroth dilution method
Aspergillus fumigatus [20] = assay: Potency index, ratio of sulfisoxazole MIC to compound MIC for Aspergillus fumigatus assessed as inhibition of DHPS-mediated fungal growth incubated for 48 hrs by microbroth dilution method
hTERT-BJ = assay: Cytotoxicity against human hTERT-BJ1 cells at 50 uM by acid phosphatase assay relative to control; assay type: cell-based
Proteus vulgaris [21] = assay: Inhibition of DHPS in Proteus vulgaris assessed as antibacterial activity by measuring inhibition of bacterial growth incubated for 24 hrs by microbroth dilution method

Row | Compound | inhibition [1] | inhibition zone (IZ) (Geotrichum candidum [2]) | inhibition zone (IZ) (Aspergillus fumigatus [3]) | inhibition zone (IZ) (Proteus vulgaris [4]) | inhibition zone (IZ) (Klebsiella pneumoniae [5]) | inhibition zone (IZ) [6] | inhibition zone (IZ) [7] | inhibition zone (IZ) (Bacillus subtilis [8]) | inhibition [9] | inhibition zone (IZ) (Escherichia coli [10]) | inhibition zone (IZ) (Streptococcus pneumoniae [11]) | MIC [12] [µg/mL] | MIC (Bacillus subtilis [13]) [µg/mL] | MIC (Streptococcus pneumoniae [14]) [µg/mL] | MIC (Escherichia coli [15]) [µg/mL] | MIC [16] [µg/mL] | MIC (Geotrichum candidum [17]) [µg/mL] | MIC (Klebsiella pneumoniae [18]) [µg/mL] | also measured
1 | CCS/C(NC12CC3CC(CC(C3)C1)C2)=C(\C#N)C(=O)Nc1ccc(S(=O)(=O)Nc2onc(C)c2C)cc1 | inactive | inactive | inactive | inactive | inactive | inactive | inactive | inactive | inactive | inactive | inactive | – | – | – | – | – | – | – | –
2 | CCS/C(Nc1ccccc1)=C(\C#N)C(=O)Nc1ccc(S(=O)(=O)Nc2onc(C)c2C)cc1 | inactive | inactive | inactive | inactive | inactive | 10.1 mm | inactive | 11.2 mm | inactive | inactive | inactive | – | – | – | – | – | – | – | –
3 | Cc1noc(NS(=O)(=O)c2ccc(N)cc2)c1C | – | 16.8 mm | 15.1 mm | inactive | 18.2 mm | 17.5 mm | 13.2 mm | 20.8 mm | – | 15.2 mm | 19.6 mm | 7.81 (≈ 29.2 µM) | 0.98 (≈ 3.67 µM) | 1.95 (≈ 7.29 µM) | 62.5 (≈ 234 µM) | 125 (≈ 468 µM) | 15.6 (≈ 58.5 µM) | 7.81 (≈ 29.2 µM) | MIC (Aspergillus fumigatus [19]): 62.5 µg/mL (≈ 234 µM)
4 | Cc1noc(NS(=O)(=O)c2ccc(NC(=O)c3c(N)n[nH]c3Nc3ccccc3)cc2)c1C | inactive | inactive | inactive | inactive | inactive | 13.4 mm | inactive | 12.6 mm | inactive | inactive | inactive | 15.6 (≈ 33.4 µM) | – | – | – | – | – | – | –
5 | C=CCN/C(SC)=C(/C#N)C(=O)Nc1ccc(S(=O)(=O)Nc2onc(C)c2C)cc1 | inactive | 18.2 mm | 12.6 mm | inactive | inactive | inactive | 15.7 mm | inactive | inactive | inactive | inactive | – | – | – | – | 62.5 (≈ 140 µM) | 15.6 (≈ 34.9 µM) | – | –
6 | Cc1noc(NS(=O)(=O)c2ccc(NC(=O)/C(C#N)=C(/S)Nc3ccccc3)cc2)c1C | inactive | 17.1 mm | 16.8 mm | inactive | inactive | inactive | 14.3 mm | inactive | inactive | inactive | inactive | – | – | – | – | 125 (≈ 266 µM) | 31.2 (≈ 66.6 µM) | – | Ratio (Aspergillus fumigatus [20]): 2; MIC (Aspergillus fumigatus [19]): 15.6 µg/mL (≈ 33.3 µM)
7 | CCN/C(SC)=C(/C#N)C(=O)Nc1ccc(S(=O)(=O)Nc2onc(C)c2C)cc1 | – | – | – | – | – | – | – | – | – | – | – | – | – | – | – | – | – | – | Activity (hTERT-BJ): 1.1%
8 | C[C@@H]1[C@H](O)[C@@H](C)/C=C/C=C/C=C/C=C/C=C/C=C/C=C/[C@H](O[C@@H]2O[C@H](C)[C@@H](O)[C@H](N)[C@@H]2O)C[C@@H]2O[C@](O)(C[C@@H](O)C[C@@H](O)[C@H](O)CC[C@@H](O)C[C@@H](O)CC(=O)O[C@H]1C)C[C@H](O)[C@H]2C(=O)O | – | 28.7 mm | 23.7 mm | – | – | – | 19.7 mm | – | – | – | – | – | – | – | – | 7.81 (≈ 8.45 µM) | 0.007 (≈ 0.00758 µM) | – | MIC (Aspergillus fumigatus [19]): 0.12 µg/mL (≈ 0.13 µM)
9 | CS/C(Nc1ccccc1)=C(\C#N)C(=O)Nc1ccc(S(=O)(=O)Nc2onc(C)c2C)cc1 | inactive | inactive | inactive | inactive | inactive | inactive | inactive | inactive | inactive | inactive | inactive | – | – | – | – | – | – | – | –
10 | CCN/C(S)=C(/C#N)C(=O)Nc1ccc(S(=O)(=O)Nc2onc(C)c2C)cc1 | inactive | 17.1 mm | 12.6 mm | 12.6 mm | 16.4 mm | 17.3 mm | 13.2 mm | 15.4 mm | inactive | 14.3 mm | 13.7 mm | 31.2 (≈ 74.1 µM) | 62.5 (≈ 148 µM) | 62.5 (≈ 148 µM) | 62.5 (≈ 148 µM) | 7.81 (≈ 18.5 µM) | 15.6 (≈ 37.1 µM) | 62.5 (≈ 148 µM) | Activity (hTERT-BJ): 1.7%
11 | GENTAMICIN | – | – | – | 23.4 mm | 26.3 mm | – | – | – | – | 19.9 mm | – | – | 0.24 | – | 1.95 | – | – | 0.03 | MIC (Proteus vulgaris [21]): 0.24 µg/mL
12 | CC1(C)S[C@@H]2[C@H](NC(=O)[C@H](N)c3ccccc3)C(=O)N2[C@H]1C(=O)O | – | – | – | – | – | 25.4 mm | – | 32.4 mm | – | – | 23.8 mm | 0.06 (≈ 0.172 µM) | 0.24 (≈ 0.687 µM) | 0.12 (≈ 0.343 µM) | – | – | – | – | –
13 | Cc1noc(NS(=O)(=O)c2ccc(NC(=O)/C(C#N)=C(/S)NC34CC5CC(CC(C5)C3)C4)cc2)c1C | inactive | 14.7 mm | 14.9 mm | 11.7 mm | 16.2 mm | 16.2 mm | 13.6 mm | 17.4 mm | inactive | 13.3 mm | 16.9 mm | 62.5 (≈ 118 µM) | 31.2 (≈ 59.2 µM) | 31.2 (≈ 59.2 µM) | 62.5 (≈ 118 µM) | – | 125 (≈ 237 µM) | 62.5 (≈ 118 µM) | MIC (Aspergillus fumigatus [19]): 62.5 µg/mL (≈ 118 µM)
14 | CC(=O)OC[C@H]1O[C@@H](S/C(Nc2ccccc2)=C(\C#N)C(=O)Nc2ccc(S(=O)(=O)Nc3onc(C)c3C)cc2)[C@H](OC(C)=O)[C@@H](OC(C)=O)[C@@H]1OC(C)=O | inactive | inactive | inactive | 8.3 mm | 14.2 mm | 18.9 mm | inactive | 12.4 mm | inactive | 10.6 mm | 10.6 mm | 15.6 (≈ 19.5 µM) | – | – | – | – | – | 62.5 (≈ 78.1 µM) | –
15 | CC(=O)OC[C@H]1O[C@@H](S/C(Nc2ccccc2)=C(\C#N)C(=O)Nc2ccc(S(=O)(=O)Nc3onc(C)c3C)cc2)[C@H](OC(C)=O)[C@@H](OC(C)=O)[C@H]1OC(C)=O | inactive | inactive | inactive | 11.2 mm | 15.8 mm | 14.2 mm | inactive | 19.8 mm | inactive | 13.2 mm | 15.1 mm | 125 (≈ 156 µM) | 1.95 (≈ 2.44 µM) | 62.5 (≈ 78.1 µM) | 125 (≈ 156 µM) | – | – | 62.5 (≈ 78.1 µM) | –
16 | CN/C(SC)=C(/C#N)C(=O)Nc1ccc(S(=O)(=O)Nc2onc(C)c2C)cc1 | inactive | inactive | inactive | inactive | inactive | inactive | inactive | inactive | inactive | inactive | inactive | – | – | – | – | – | – | – | –
